# Earlier results in patent publication US11877998B2, “Supplement composition” (H & H SCIENCE, LLC, priority 2017, dated 2024).
# Experiments:
# [1] = tested on: retinol-binding proteins (RBPs); details: acne patients, oral, after four weeks
# hair growth = details: men taking supplements
# nonmelanoma skin cancer = details: oral, high risk group
Molecule,serum levels of retinol-binding proteins (RBPs) [1],other results
[Zn] [zinc],not observed,–
vitamin A [oral vitamin A],not observed,–
vitamin E,–,hair growth versus placebo (hair growth): grew more hair
"O=C(O)c1cccnc1 [oral niacin, niacin]",–,reduction of nonmelanoma skin cancer (nonmelanoma skin cancer): by a quarter
